Results as given in patent publication US10800791B2, “Triazole ACC inhibitors and uses thereof” (Gilead Apollo, LLC, priority 2015, dated 2020).
Converted amounts (≈) assume the structure as drawn. Read-outs that look alike come from different tables or passages of the source.

How the values were obtained:
human (hACC2) = human (hACC2) (Homo sapiens, UniProt O00763); experiment: In vitro ACC inhibition assay (ADP-Glo), hACC2; format: biochemical; conditions: 5 nM ACC2, 20 μM ATP, 20 μM acetyl-CoA
Description: The detailed procedure is as follows. […] 10 μL ADP glo reagent was added. […] 20 μL kinase detection reagent was added.

C. krusei = experiment: Antifungal Activity Assay (broth microtiter MIC), C. krusei; format: cell-based, Candida krusei; conditions: Pichia kudriavzevii, ATCC6258, 48 h, ATCC 6258, 3 replicates, MIC recorded at 48 h, read-out: MIC, C. krusei ATCC 6258
Summary of the method: (§1)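 Endpoint: lowest concentration visibly inhibiting growth relative to control after 48 h. Inoculum of 2.5×10^3 CFU/mL final in RPMI 1640+MOPS, prepared from overnight 35° C agar cultures; test compounds diluted in water to 128 μg/mL before plating.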

Rhizoctonia solani (Rs) = experiment: Growth inhibition assay of fungal pathogens, Rs; format: cell-based; conditions: 48 h, mycelial plugs, read-out: Concentration at 90% Inhibition Rs
Diplodia maydis (Dm) = experiment: Growth inhibition assay of fungal pathogens, Dm; format: cell-based; conditions: Stenocarpella maydis, 48 h, Diplodia maydis, read-out: Concentration at 90% Inhibition Dm
Summary of the method: (§2)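 Percent inhibition derived at 48 hours from OD600 and visual scores versus 2% DMSO control, with media+DMSO blank as background. Spore inocula in 17% V8 medium were sized from 48 h growth curves; compounds tested at final 50/10/2 or 2/0.4/0.08 ppm.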

[1] = test system: Collectotrichum graminicola (Cg); experiment: Growth inhibition assay of fungal pathogens, Cg; format: cell-based; conditions: 48 h, Collectotrichum graminicola, read-out: Concentration at 90% Inhibition Cg
Summary of the method: as §2

[2] = test system: Fusarium moniliforme (Fm); experiment: Growth inhibition assay of fungal pathogens, Fm; format: cell-based; conditions: Fusarium verticillioides, 48 h, Fusarium moniliforme, read-out: Concentration at 90% Inhibition Fm
Summary of the method: as §2

Septoria tritici (St) = experiment: Growth inhibition assay of fungal pathogens, St; format: cell-based; conditions: Zymoseptoria tritici, 48 h, Septoria tritici, read-out: Concentration at 90% Inhibition St
Summary of the method: as §2

C. parapsilosis = experiment: Antifungal Activity Assay (broth microtiter MIC), C. parapsilosis; format: cell-based, Candida parapsilosis; conditions: Lodderomyces parapsilosis, ATCC22019, 48 h, ATCC 22019, 3 replicates, MIC recorded at 48 h, read-out: MIC, C. parapsilosis ATCC 22019
Summary of the method: as §1

C. albicans = experiment: Antifungal Activity Assay (broth microtiter MIC), C. albicans; format: cell-based, Candida albicans; conditions: Candida albicans, ATCC90028, 48 h, ATCC 90028, 3 replicates, MIC recorded at 48 h, read-out: MIC, C. albicans ATCC 90028
Summary of the method: as §1

[3] = test system: Phytophthora capsici (Pc); experiment: Growth inhibition assay of fungal pathogens, Pc; format: cell-based; conditions: 48 h, read-out: Concentration at 90% Inhibition Pc
Summary of the method: as §2

[4] = test system: Fusarium virguliforme (Fv); experiment: Growth inhibition assay of fungal pathogens, Fv; format: cell-based; conditions: 48 h, read-out: Concentration at 90% Inhibition Fv
Summary of the method: as §2

[5] = growth inhibition at 48 hours vs 2% DMSO control
[6] = growth inhibition vs 2% DMSO control at 48 hours

Chain of human (hACC2) (O00763 whole entry): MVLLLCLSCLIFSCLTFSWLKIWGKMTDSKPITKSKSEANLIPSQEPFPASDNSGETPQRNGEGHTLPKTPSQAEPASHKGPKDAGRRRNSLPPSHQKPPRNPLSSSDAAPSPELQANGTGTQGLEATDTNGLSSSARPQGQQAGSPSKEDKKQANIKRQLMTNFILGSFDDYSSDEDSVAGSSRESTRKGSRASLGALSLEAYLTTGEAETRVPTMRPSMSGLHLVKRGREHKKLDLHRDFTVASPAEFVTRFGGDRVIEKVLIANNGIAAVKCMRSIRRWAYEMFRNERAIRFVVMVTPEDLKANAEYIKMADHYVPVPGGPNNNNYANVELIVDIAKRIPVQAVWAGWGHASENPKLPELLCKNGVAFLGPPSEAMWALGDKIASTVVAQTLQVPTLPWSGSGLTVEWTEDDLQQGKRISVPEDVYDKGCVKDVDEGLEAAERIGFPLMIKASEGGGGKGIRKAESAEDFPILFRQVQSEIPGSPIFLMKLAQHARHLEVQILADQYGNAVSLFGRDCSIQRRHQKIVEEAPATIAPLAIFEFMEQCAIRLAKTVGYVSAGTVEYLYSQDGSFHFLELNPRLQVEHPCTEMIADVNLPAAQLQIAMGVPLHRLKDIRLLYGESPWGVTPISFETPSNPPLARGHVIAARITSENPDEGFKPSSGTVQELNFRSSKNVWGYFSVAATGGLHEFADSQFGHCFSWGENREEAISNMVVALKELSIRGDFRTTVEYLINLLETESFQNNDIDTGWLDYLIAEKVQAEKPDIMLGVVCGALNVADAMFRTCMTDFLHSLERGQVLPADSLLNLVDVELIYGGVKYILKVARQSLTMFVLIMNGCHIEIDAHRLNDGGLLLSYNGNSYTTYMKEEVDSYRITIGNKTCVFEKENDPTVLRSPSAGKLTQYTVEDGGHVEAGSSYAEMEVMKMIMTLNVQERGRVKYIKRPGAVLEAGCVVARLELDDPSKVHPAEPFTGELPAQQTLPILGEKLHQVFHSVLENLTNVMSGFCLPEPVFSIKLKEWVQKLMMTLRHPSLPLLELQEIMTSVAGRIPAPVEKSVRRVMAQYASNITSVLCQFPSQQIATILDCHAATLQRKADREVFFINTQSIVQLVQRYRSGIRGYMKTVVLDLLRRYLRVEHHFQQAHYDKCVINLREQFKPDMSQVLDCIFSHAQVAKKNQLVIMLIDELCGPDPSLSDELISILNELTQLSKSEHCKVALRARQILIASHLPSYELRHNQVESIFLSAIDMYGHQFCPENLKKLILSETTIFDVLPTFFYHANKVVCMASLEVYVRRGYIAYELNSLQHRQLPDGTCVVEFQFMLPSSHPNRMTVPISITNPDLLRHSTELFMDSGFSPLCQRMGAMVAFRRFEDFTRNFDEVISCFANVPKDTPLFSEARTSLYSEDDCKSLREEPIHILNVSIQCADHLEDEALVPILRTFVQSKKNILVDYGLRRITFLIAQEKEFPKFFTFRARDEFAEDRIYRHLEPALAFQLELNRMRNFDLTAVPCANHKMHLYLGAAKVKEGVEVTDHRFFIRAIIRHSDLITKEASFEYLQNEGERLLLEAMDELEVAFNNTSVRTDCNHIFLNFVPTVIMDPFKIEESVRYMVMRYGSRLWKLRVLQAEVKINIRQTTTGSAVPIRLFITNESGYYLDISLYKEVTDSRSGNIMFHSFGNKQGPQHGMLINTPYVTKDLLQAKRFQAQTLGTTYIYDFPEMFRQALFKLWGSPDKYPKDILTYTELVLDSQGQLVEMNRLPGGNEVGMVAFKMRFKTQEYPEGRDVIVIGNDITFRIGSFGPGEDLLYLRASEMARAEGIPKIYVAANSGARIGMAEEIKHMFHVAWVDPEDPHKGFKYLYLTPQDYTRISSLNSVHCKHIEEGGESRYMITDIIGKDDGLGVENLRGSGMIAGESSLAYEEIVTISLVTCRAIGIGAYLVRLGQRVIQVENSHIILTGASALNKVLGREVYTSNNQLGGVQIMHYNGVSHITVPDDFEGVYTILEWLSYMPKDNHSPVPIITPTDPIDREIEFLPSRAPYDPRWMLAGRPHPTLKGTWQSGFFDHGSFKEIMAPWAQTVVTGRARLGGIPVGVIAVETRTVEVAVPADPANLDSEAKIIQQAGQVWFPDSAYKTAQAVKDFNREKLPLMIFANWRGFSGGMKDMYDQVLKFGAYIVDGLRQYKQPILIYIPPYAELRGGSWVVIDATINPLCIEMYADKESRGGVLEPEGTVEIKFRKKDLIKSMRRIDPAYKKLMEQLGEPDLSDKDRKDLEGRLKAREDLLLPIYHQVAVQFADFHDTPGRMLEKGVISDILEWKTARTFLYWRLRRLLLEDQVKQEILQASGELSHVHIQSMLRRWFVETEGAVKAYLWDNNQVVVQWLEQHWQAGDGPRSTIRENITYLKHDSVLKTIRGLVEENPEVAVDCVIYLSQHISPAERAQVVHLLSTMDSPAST

Compound: COc1ccc(F)cc1[C@H](Cn1c(=O)n(C(C)(C)C(=O)NC(C)C)c(=O)c2c(C)c(-n3nccn3)sc21)OCCC#N [Compound I-91, (R)-2-(1-(2-(2-cyanoethoxy)-2-(5-fluoro-2-methoxy-phenyl)ethyl)-5-methyl-2,4-dioxo-6-(2H-1,2,3-triazol-2-yl)-1,4-dihydro-thieno[2,3-d]pyrimidin-3(2H)-yl)-N-isopropyl-2-methylpropanamide]
- IC50 (human (hACC2); Table 2a): 10 to 40 nM
- IC50 (human (hACC2); Table 2b, additional results): 10 to 40 nM
- MIC (C. krusei; Table 3a): 0.06 to 0.24 µg/mL (≈ 0.1 to 0.402 µM)
- MIC (C. krusei; Table 3b (additional results)): 0.25 to 1 µg/mL (≈ 0.418 to 1.67 µM)
- IC90 (Rhizoctonia solani (Rs); [5]): 0.08 µg/mL (≈ 0.134 µM)
- IC90 (Rhizoctonia solani (Rs); [6]): 0.08 µg/mL (≈ 0.134 µM)
- IC90 (Diplodia maydis (Dm); [5]): 0.08 µg/mL (≈ 0.134 µM)
- IC90 (Diplodia maydis (Dm); [6]): 0.08 µg/mL (≈ 0.134 µM)
- IC90 [1, 5]: 0.08 µg/mL (≈ 0.134 µM)
- IC90 [1, 6]: 0.08 µg/mL (≈ 0.134 µM)
- IC90 [2, 5]: 0.08 µg/mL (≈ 0.134 µM)
- IC90 [2, 6]: 0.08 µg/mL (≈ 0.134 µM)
- IC90 (Septoria tritici (St); [5]): > 50 µg/mL
- IC90 (Septoria tritici (St); [6]): > 50 µg/mL
- MIC (C. parapsilosis; Table 3a): 0.06 to 0.24 µg/mL (≈ 0.1 to 0.402 µM)
- MIC (C. parapsilosis; Table 3b (additional results)): 0.25 to 1 µg/mL (≈ 0.418 to 1.67 µM)
- MIC (C. albicans; Table 3a): 0.25 to 1 µg/mL (≈ 0.418 to 1.67 µM)
- MIC (C. albicans; Table 3b (additional results)): 1.01 to 2 µg/mL (≈ 1.69 to 3.35 µM)
- IC90 [3, 5]: 2 µg/mL (≈ 3.35 µM)
- IC90 [3, 6]: 10 µg/mL (≈ 16.7 µM)
- IC90 [4, 5]: 0.08 µg/mL (≈ 0.134 µM)
- IC90 [4, 6]: 0.08 µg/mL (≈ 0.134 µM)
